# Patent US8673913B2, “SHP-2 phosphatase inhibitor” (Case Western Reserve University, priority 2009, dated 2014)
# Tested on: H661 (SHP-2 N58S) and H596 lung cancer cells
# Assay: cell proliferation assay, lung cancer cells (MTS)
# Assay type: cell-based
# Conditions: indicated concentrations 48 hours; 10 μM time course
# Description: To test the effects of the active compounds on SHP-2-mediated cellular proliferation, Ba/F3, an IL-3 dependent hematopoietic cell line, mouse embryonic fibroblasts (MEFs), and H661 lung cancer cell line with SHP-2 activating mutation N58S were used for the assays. Cells were seeded into 96-well plates (2×10^4 cells/well) in the RPMI-1640 (for Ba/F3 cells) or DMEM (for MEFs and H661 cells) medium supplemented with 10% fetal bovine serum (FBS) and test compounds at various concentrations. For the Ba/F3 cell assay, recombinant mouse IL-3 (1 ng/mL) was included in the culture medium. Two days later, cell number was determined using the MTS cell proliferation kit (Promega Life Science, Madison, Wis.).
# FIG. 14 illustrates A). […] H661 and H596 cells were cultured in DMEM medium supplemented with active compounds at the indicated concentrations. DMSO was included at negative controls. Cell numbers were determined 48 hours later using the MTS assay. Shown are the results of a representative compound #324. B). […] H661 and H596 cells were cultured in DMEM medium supplemented with active compounds (10 μM) for the indicated periods of time. DMSO was included at negative controls. Cell numbers were determined using the MTS assay. Shown are the results of a representative compound #324.
smiles,measurement,value
Cc1cc(C)c2[nH]c3nc(SCC(=O)Nc4cccc5ccccc45)nnc3c2c1 [#324],sensitivity of H661 (N58S) cells versus H596 cells,more sensitive
